Results: US10875799B2, “System and method for generation of point of use reactive oxygen species” (Clean Chemistry, Inc., priority 2012, dated 2020)

What was measured:
[1] = cited from earlier work
[2] = Methylene blue (MB) dye oxidation / color removal test; conditions: hydrogen peroxide alone, after several days

| SMILES | pKa [1] | effect on methylene blue [2] |
| --- | --- | --- |
| CC(=O)OO [peroxyacetic acid] | 8.3 | – |
| [O]O [superoxide] | 4.8 | – |
| OO [hydrogen peroxide] | 11.6 | no visible effect |
